Measured values: ChEMBL document CHEMBL1201862, “PubChem BioAssay data set” (2004)
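Values below derive from 48-hour exposures of cells grown in 96-well plates, with endpoints linearly interpolated between the two concentrations bracketing the appropriate inhibition level. GI50 marks 50% less growth.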 Active and inactive are the calls of the source. Cut-off read from the data, not from the text of the source: active = GI50 up to about 1.1 µM and inactive = higher.

How the values were obtained:
Test in all cases: inhibition of tumour cell growth, NCI panel, 48 h
ACHN = tested on: ACHN
BT-549 = tested on: BT-549
CAKI-1 = tested on: CAKI-1
HCC 2998 = tested on: HCC 2998
HOP-92 = tested on: HOP-92
KM12 = tested on: KM12
M14 = tested on: M14
MCF7 = tested on: MCF7
MDA-N = tested on: MDA-N
Malme-3M = tested on: Malme-3M
OVCAR-5 = tested on: OVCAR-5
PC-3 = tested on: PC-3
SK-MEL-28 = tested on: SK-MEL-28
SK-OV-3 = tested on: SK-OV-3
SNB-75 = tested on: SNB-75
SR = tested on: SR
TK-10 = tested on: TK-10
U-251 = tested on: U-251
UACC-62 = tested on: UACC-62
UO-31 = tested on: UO-31

| Compound | GI50 (ACHN) | GI50 (BT-549) | GI50 (CAKI-1) | GI50 (HCC 2998) | GI50 (HOP-92) | GI50 (KM12) | GI50 (M14) | GI50 (MCF7) | GI50 (MDA-N) | GI50 (Malme-3M) | GI50 (OVCAR-5) | GI50 (PC-3) | GI50 (SK-MEL-28) | GI50 (SK-OV-3) | GI50 (SNB-75) | GI50 (SR) | GI50 (TK-10) | GI50 (U-251) | GI50 (UACC-62) | GI50 (UO-31) |
| --- | --- | --- | --- | --- | --- | --- | --- | --- | --- | --- | --- | --- | --- | --- | --- | --- | --- | --- | --- | --- |
| O=[N+]([O-])c1ccc(-[n+]2ccc3ccccc3c2)c([N+](=O)[O-])c1 | 2.02 µM (inactive) | 4.83 µM (inactive) | 4.14 µM (inactive) | 13.7 µM (inactive) | 2.48 µM (inactive) | 12.3 µM (inactive) | 4.55 µM (inactive) | 1.88 µM (inactive) | 2.33 µM (inactive) | 3.94 µM (inactive) | 11.7 µM (inactive) | 3.93 µM (inactive) | 2.83 µM (inactive) | 14.1 µM (inactive) | 3.14 µM (inactive) | 3.42 µM (inactive) | 1.85 µM (inactive) | 5.68 µM (inactive) | 2.28 µM (inactive) | 5.02 µM (inactive) |
| CCOC(=O)c1nc2ccccc2nc1Oc1cc(OC)c(OC)c(OC)c1 | 46.9 µM (inactive) | > 100 µM (inactive) | 84.5 µM (inactive) | > 100 µM (inactive) | 47.6 µM (inactive) | > 100 µM (inactive) | > 100 µM (inactive) | > 100 µM (inactive) | > 100 µM (inactive) | > 100 µM (inactive) | > 100 µM (inactive) | > 100 µM (inactive) | > 100 µM (inactive) | – | 44.3 µM (inactive) | > 100 µM (inactive) | 51.2 µM (inactive) | 32.6 µM (inactive) | > 100 µM (inactive) | > 100 µM (inactive) |
| [N-]=[N+]=NC1=C(N=[N+]=[N-])c2cccc3cccc(c23)C1=O | > 100 µM (inactive) | > 100 µM (inactive) | > 100 µM (inactive) | > 100 µM (inactive) | > 100 µM (inactive) | 76.2 µM (inactive) | > 100 µM (inactive) | > 100 µM (inactive) | < 0.01 µM (active) | > 100 µM (inactive) | > 100 µM (inactive) | > 100 µM (inactive) | – | > 100 µM (inactive) | > 100 µM (inactive) | 88.3 µM (inactive) | > 100 µM (inactive) | 97.7 µM (inactive) | > 100 µM (inactive) | > 100 µM (inactive) |
| Clc1ccccc1-c1nnc2c(-c3ccccc3)nc3ccccc3n12 | > 100 µM (inactive) | > 100 µM (inactive) | – | > 100 µM (inactive) | > 100 µM (inactive) | > 100 µM (inactive) | > 100 µM (inactive) | 92 µM (inactive) | 96.6 µM (inactive) | 61.7 µM (inactive) | > 100 µM (inactive) | > 100 µM (inactive) | > 100 µM (inactive) | > 100 µM (inactive) | – | 45.2 µM (inactive) | > 100 µM (inactive) | > 100 µM (inactive) | > 100 µM (inactive) | 2.07 µM (inactive) |
| O=c1[nH]c2nc3ccccc3c(=O)n2/c1=C/c1cccs1 | > 100 µM (inactive) | > 100 µM (inactive) | > 100 µM (inactive) | > 100 µM (inactive) | 87.7 µM (inactive) | 70.3 µM (inactive) | > 100 µM (inactive) | > 100 µM (inactive) | > 100 µM (inactive) | > 100 µM (inactive) | > 100 µM (inactive) | > 100 µM (inactive) | > 100 µM (inactive) | > 100 µM (inactive) | 20.5 µM (inactive) | > 100 µM (inactive) | > 100 µM (inactive) | > 100 µM (inactive) | > 100 µM (inactive) | > 100 µM (inactive) |
| Cc1cc(S(=O)(=O)N/C(=C(\C#N)C(=O)c2ccc(Cl)cc2)[n+]2ccc(N(C)C)cc2)c([S-])cc1Cl | > 100 µM (inactive) | > 100 µM (inactive) | > 100 µM (inactive) | 83 µM (inactive) | < 0.01 µM (active) | > 100 µM (inactive) | 41.9 µM (inactive) | 71.3 µM (inactive) | > 100 µM (inactive) | 0.836 µM (active) | 66.5 µM (inactive) | 36.6 µM (inactive) | > 100 µM (inactive) | 30.5 µM (inactive) | – | 41.3 µM (inactive) | 43.2 µM (inactive) | > 100 µM (inactive) | > 100 µM (inactive) | > 100 µM (inactive) |
| O=C(Nc1nncs1)NS(=O)(=O)n1c(=S)sc2ccccc21 | > 100 µM (inactive) | > 100 µM (inactive) | > 100 µM (inactive) | > 100 µM (inactive) | > 100 µM (inactive) | > 100 µM (inactive) | > 100 µM (inactive) | > 100 µM (inactive) | > 100 µM (inactive) | > 100 µM (inactive) | > 100 µM (inactive) | > 100 µM (inactive) | > 100 µM (inactive) | > 100 µM (inactive) | > 100 µM (inactive) | 36.4 µM (inactive) | > 100 µM (inactive) | > 100 µM (inactive) | > 100 µM (inactive) | > 100 µM (inactive) |
| COc1cc(NC(C)c2ccc3c(c2)OCCO3)cc(OC)c1OC (stereo not drawn) | 70 µM (inactive) | 33 µM (inactive) | 46 µM (inactive) | 23 µM (inactive) | > 100 µM (inactive) | 31.5 µM (inactive) | 31.4 µM (inactive) | 29.6 µM (inactive) | 5.4 µM (inactive) | 19.1 µM (inactive) | 46.6 µM (inactive) | 44.9 µM (inactive) | 56.4 µM (inactive) | – | – | 10.4 µM (inactive) | 63 µM (inactive) | 29.5 µM (inactive) | 29.9 µM (inactive) | 56.9 µM (inactive) |
| CN(C)Cc1cc(C=O)cc(CN(C)C)c1O | > 100 µM (inactive) | > 100 µM (inactive) | – | > 100 µM (inactive) | > 100 µM (inactive) | > 100 µM (inactive) | – | > 100 µM (inactive) | > 100 µM (inactive) | > 100 µM (inactive) | – | > 100 µM (inactive) | > 100 µM (inactive) | – | > 100 µM (inactive) | > 100 µM (inactive) | > 100 µM (inactive) | > 100 µM (inactive) | – | > 100 µM (inactive) |
| COc1ccc(-c2c(N)n(-c3cc(OC)cc(OC)c3)c(=O)c3cc([N+](=O)[O-])ccc23)cc1 | > 100 µM (inactive) | 19.2 µM (inactive) | 31.4 µM (inactive) | > 100 µM (inactive) | 3.21 µM (inactive) | > 54.5 µM (inactive) | 32.4 µM (inactive) | 29.3 µM (inactive) | > 50.8 µM (inactive) | > 100 µM (inactive) | > 100 µM (inactive) | 31.3 µM (inactive) | > 100 µM (inactive) | > 100 µM (inactive) | – | 27.4 µM (inactive) | > 26 µM (inactive) | > 100 µM (inactive) | 99.3 µM (inactive) | > 23.3 µM (inactive) |
| COC1/C=C\C=C(/C)C(=O)NC2=CC(=O)C(O)=C(CC(C)CC(OC)C(O)C(C)/C=C(\C)C1OC(N)=O)C2=O (stereo not drawn) | 2.81 µM (inactive) | 40.5 µM (inactive) | 2.55 µM (inactive) | 1.4 µM (inactive) | 0.382 µM (active) | 0.649 µM (active) | 0.56 µM (active) | 0.0826 µM (active) | 0.0364 µM (active) | 0.0668 µM (active) | 11.5 µM (inactive) | 0.253 µM (active) | 0.316 µM (active) | 3.59 µM (inactive) | – | 0.0406 µM (active) | 0.438 µM (active) | 1.03 µM (active) | 0.382 µM (active) | 3.95 µM (inactive) |
| COc1ccc2c(c1)C1=NCCN(C)c3ccc([N+](=O)[O-])c(c31)N2 | 0.465 µM (active) | 2.91 µM (inactive) | 0.698 µM (active) | 1.26 µM (inactive) | 1.4 µM (inactive) | 1.21 µM (inactive) | 1 µM (active) | 1.15 µM (inactive) | 0.546 µM (active) | 1.04 µM (active) | 2.19 µM (inactive) | 0.583 µM (active) | 2.55 µM (inactive) | 2.23 µM (inactive) | – | 2.88 µM (inactive) | 2.86 µM (inactive) | 1.34 µM (inactive) | 1.1 µM (active) | 0.555 µM (active) |
| OC1(c2ccccc2)c2ccccc2N=C2NCCN21 (stereo not drawn) | > 100 µM (inactive) | > 100 µM (inactive) | 45.4 µM (inactive) | 16.3 µM (inactive) | 54.5 µM (inactive) | > 100 µM (inactive) | 50.6 µM (inactive) | 63.1 µM (inactive) | 35.6 µM (inactive) | – | > 100 µM (inactive) | 52.2 µM (inactive) | 89.3 µM (inactive) | > 100 µM (inactive) | 91.4 µM (inactive) | 0.192 µM (active) | 37.4 µM (inactive) | 91.8 µM (inactive) | 51.4 µM (inactive) | 59.2 µM (inactive) |
| CC1=NN(C(=O)c2ccncc2)C(=O)C1 | > 100 µM (inactive) | > 100 µM (inactive) | > 100 µM (inactive) | > 100 µM (inactive) | > 100 µM (inactive) | > 100 µM (inactive) | > 100 µM (inactive) | > 100 µM (inactive) | > 100 µM (inactive) | > 100 µM (inactive) | > 100 µM (inactive) | > 100 µM (inactive) | > 100 µM (inactive) | > 100 µM (inactive) | > 100 µM (inactive) | > 100 µM (inactive) | > 100 µM (inactive) | > 100 µM (inactive) | > 100 µM (inactive) | > 100 µM (inactive) |
| COc1ccc(C2CCc3nc4nc(N)nc(N)c4cc3C2)cc1 (stereo not drawn) | 6.64 µM (inactive) | 25.5 µM (inactive) | 54.1 µM (inactive) | 31.8 µM (inactive) | 1.2 µM (inactive) | 30.8 µM (inactive) | 86.9 µM (inactive) | 15.2 µM (inactive) | 38.3 µM (inactive) | 24.5 µM (inactive) | > 100 µM (inactive) | 85.1 µM (inactive) | 20.8 µM (inactive) | 10.1 µM (inactive) | 1.67 µM (inactive) | 24.3 µM (inactive) | 8.34 µM (inactive) | 9.64 µM (inactive) | 31.5 µM (inactive) | – |
